Positions of bridges follow the written chain, without caps; N, C: chain ends. Residues, ends and D or L forms follow the SMILES beside them. No end group written: not given here.
What was measured:
Assay in all cases: Cell adhesion to peptide-coated wells compared with thrombospondin
Assay type in all cases: cell-based
Details in all cases: two micrograms of peptide dried on well, 200,000 cells per well, 30 minutes at 37°C, relative to thrombospondin
[1] = tested on: A549 Human Lung Adenocarcinoma
Experimental: (§1) In this example a series of peptides were tested to determine the abilities of the peptides to bind various cells as compared to thrombospondin. It is believed that thrombospondin acts in metastasis through its adhesive properties. An assay was developed, generally in accordance with the disclosure of Tuszynski et al. (Anal. Bio. (1990) 184:189-91) which evaluates the ability of cells to adhere to the thrombospondin fragments or analogs of the invention. In this assay, thrombospondin (purified by the method of Tuszynski et al., J. Biol. Chem. (1985) 260:12240-5) served as a positive control, bovine serum albumin (BSA) (Sigma Chemical Co.) and the peptides ANKHYF and VCTGSC and TCVCGS served as negative controls. The cell types evaluated were B16F10 mouse melanoma cells, A549 human lung adrenocarcinoma cells, bovine aortic smooth muscle cells, and rabbit smooth muscle cells.
(§2) Thrombospondin analogs of the invention were synthesized as described in Examples 1-4. Two micrograms of peptide or control proteins were air dried overnight on the wells of a 96-well microtiter plate. Wells were then washed with HEPES-buffered saline and blocked for 1 hour with 1% fatty acid free BSA in HEPES-buffered saline.
(§3) The various cells were grown and harvested during log phase of growth using standard procedures. The harvested cells were washed two times in serum-free Dulbecco's minimum essential medium (DMEM) (Flow Laboratories) and suspended in HEPES-buffered saline, containing 5 mM glucose and 100 µM MgCl2 at a final concentration of […]. Of the cell suspension 200,000 cells per well was added to each well of the microtiter dish containing the various ligands and the dish incubated at 37°C in a CO2 incubator for 30 minutes. Nonadherent cells were removed by aspiration and the wells washed three times with 200 µl of PBS. The total cell-associated protein was determined by dissolving the attached cells directly in the microtiter wells with 200 µl of the Pierce BCA working solution (Pierce Chem. Co. Booklet No. 23225 (1987)). The plate was covered with an adhesive mylar sheet (Flow Labs) and incubated at 60°C for 30 minutes. Plates were allowed to cool to room temperature, cover sheets were removed, and the absorbance of each well was determined at 562 nm with a microtiter plate reader (Biotek, Burlington, Vermont.) Absorbances were converted to number of adherent cells by means of an empirically determined conversion factor.

B16-F10 Mouse Melanoma = tested on: B16-F10 Mouse Melanoma
Experimental: as §1, §2, §3

[2] = tested on: Bovine Aortic Endothelia 1 Cells
Experimental: [Worded in the source for another cell line; this cell line is reported under the same test.] as §1, §2, §3

Rabbit Smooth Muscle = tested on: Rabbit Smooth Muscle
Experimental: as §1, §2, §3

| Molecule | Percent of TSP-adherent Cells [1] | Percent of TSP-adherent Cells (B16-F10 Mouse Melanoma) | Percent of TSP-adherent Cells [2] | Percent of TSP-adherent Cells (Rabbit Smooth Muscle) |
| --- | --- | --- | --- | --- |
| CC(C)[C@H](NC(=O)[C@H](CCCNC(=N)N)NC(=O)[C@@H](N)CS)C(=O)N[C@H](C(=O)N[C@@H](CS)C(=O)NCC(=O)O)[C@@H](C)O [CRVTCG (SEQ ID NO:5), CRVTCG] (H-CRVTCG-OH) | 79% | 92% | 80% | 82% |
| C[C@@H](O)[C@H](NC(=O)[C@H](CO)NC(=O)[C@@H](N)CS)C(=O)N[C@@H](CO)C(=O)N[C@@H](CS)C(=O)NCC(=O)O [CSTSCG (SEQ ID NO:4), CSTSCG] (H-CSTSCG-OH) | 23% | 37% | 39% | 22% |
| C[C@@H](O)[C@H](NC(=O)[C@H](CO)NC(=O)[C@@H](N)CS)C(=O)N[C@@H](CO)C(=O)N[C@@H](CS)C(=O)N[C@@H](CCCNC(=N)N)C(=O)O [CSTSCR (SEQ ID NO:3), CSTSCR] (H-CSTSCR-OH) | 104% | 39% | 65% | 82% |
| CC(C)[C@H](NC(=O)[C@H](CO)NC(=O)[C@@H](N)CS)C(=O)N[C@H](C(=O)N[C@@H](CS)C(=O)NCC(=O)O)[C@@H](C)O [CSVTCG (SEQ ID NO:1), CSVTCG] (H-CSVTCG-OH) | 29% | 40% | 49% | 44% |
| CC(C)[C@H](NC(=O)[C@H](CO)NC(=O)[C@@H](N)CS)C(=O)N[C@H](C(=O)N[C@@H](CS)C(=O)N[C@@H](CCCNC(=N)N)C(=O)O)[C@@H](C)O [CSVTCR (SEQ ID NO:2), CSVTCR] (H-CSVTCR-OH) | 90% | 92% | 99% | 159% |
| CC(C)[C@@H]1NC(=O)[C@H](CO)NC(=O)[C@@H](N)CSSC[C@@H](C(=O)NCC(=O)O)NC(=O)[C@H]([C@@H](C)O)NC1=O [Cyclic CSVTCG (SEQ ID NO:1), cyclic CSVTCG-Acid] (H-CSVTCG-OH; disulfide 1-5) | 29% | 30% | 25% | 43% |
| CC(C)[C@H](NC(=O)[C@H](CS)NC(=O)[C@@H](N)[C@@H](C)O)C(=O)N[C@@H](CS)C(=O)NCC(=O)N[C@@H](CO)C(=O)O [TCVCGS, reference compound] (H-TCVCGS-OH) | 10% | 10% | 6% | 8% |
| CC(C)[C@H](N)C(=O)N[C@@H](CS)C(=O)N[C@H](C(=O)NCC(=O)N[C@@H](CO)C(=O)N[C@@H](CS)C(=O)O)[C@@H](C)O [VCTGSC, reference compound] (H-VCTGSC-OH) | 8% | 2% | 3% | 17% |
| ANKHYF [ANKHYF, reference compound] | 10% | 8% | 0% | 17% |
| ASVTAR [ASVTAR (SEQ ID NO:7), ASVTAR] |  | 39% |  |  |
| Blocked CSVTCG [Blocked CSVTCG (SEQ ID NO:1)] | 44% | 32% | 22% | 46% |
